Test results: patent US8784795B2, “Methods for determining personalized treatment compositions for prostate cancer and breast cancer” (Caldera Health Ltd., priority 2012, dated 2014)

Experiments:
[1] = system: hormone refractory prostate cancer; conditions: clinical trial; cited from earlier work
[2] = system: blood cells; experiment: Analysis of blood cells treated with Leukine in vivo for changes in perforin levels
Text: […]

[3] = system: prostate cancer; conditions: patients; cited from earlier work

| Compound | response rate [1] | change in perforin levels of blood cells [2] | control of prostate cancer [3] |
| --- | --- | --- | --- |
| CC(=O)N1CCN(c2ccc(OCC3COC(Cn4ccnc4)(c4ccc(Cl)cc4Cl)O3)cc2)CC1 (stereo not drawn) [ketoconazole] | 50% | – | – |
| Leukine®: granulocyte-macrophage colony stimulating factor (GM-CSF; also known as sargramostim; trade name Leukine®) | – | major increases | long-term control of prostate cancer in a substantial number of patients |
